Columns and labels:
Assay type in all cases: cell-based, human
[1] = test system: CDK4 3′UTR; test: CDK4-Luciferase (pMirtarget CDK4 3′UTR) reporter assay in stable HCT-116 cells; conditions: 48 hours; for direct binding to the 3′UTR region of CDK4: pMirtarget-CDK4-Luciferase vector, HCT-116, 50 nM mimic
Experimental: (§1) Transfection of miRNA mimics, siRNA and plasmid constructs: All miRNA mimics and siRNA transfections were performed by reverse transfection using Lipofectamine RNAiMAX (Life technologies, Grand Island, NY). 80 nM siRNA was used in all experiments for HT-29, RKO and SW-480 cell lines. 40 nM siRNA was used for HCT-116 cells. miRNA mimics were transfected at concentrations of either 25 nM, 50 nM, or 100 nM, as indicated in respective assays. CDK4-Luciferase vector was transfected in HCT-116 cells using Lipofectamine 3000 (Life technologies, Grand Island, NY) and stable cells were selected using G418 antibiotic (500 μg/mL).
Luciferase assays: CDK4-Luciferase containing stable HCT-116 cells were reverse-transfected with either scramble duplex or 50 nM miRNA mimics. Luciferase signal was detected 48 hours post-transfection and Relative Luciferase Units (RLU) were calculated by normalizing luciferase signal per μg of protein per assay well. All transfections were performed in triplicates and reported as RLU units±SEM.
Referring in particular to FIGS. 2A, 2B, and 2C, data is presented showing that miR-6883-5p and miR-149* negatively regulate expression of […] and CDK6 in CRC cell lines. Referring to FIG. 2A, CDK4 and CDK6 protein levels were detected in a panel of CRC cell lines reverse transfected with 50 nM of miRNA mimics or scrambled duplex (SCR) for 72 hours. Referring to FIG. 2B, qRT-PCR was performed for CDK4 and CDK6 in SCR or miRNA mimics transfected in CRC cell lines (50 nM, 72 hours, n=3). *, ** and *** indicate p-value relative to SCR expression. Referring to FIG. 2C, HCT-116 cells stably selected with CDK4-Luciferase construct were reverse transfected with SCR or 50 nM of the indicated miRNA mimics for 48 hours. Measured luciferase activities were normalized per μg of protein for indicated samples and reported as RLU±SEM (n=3). * indicates p-value relative SCR RLU.

[2] = test system: panel of CRC cell lines (HCT-116, RKO, HT-29, SW-480); test: miRNA-Irinotecan synergy by cell viability (CellTiter-Glo); conditions: 25 nM (HCT-116) or 50 nM mimic, Irinotecan added 16 hours post-transfection, read 72 hours; all four cell lines
Experimental: (§2) Cell Proliferation assays: Five thousand to ten thousand cells were reverse transfected with either scramble duplex or miRNA to a net concentration of 50 nM and plated in 96-well plate. Cell viability was measured 72 hours post-transfection using CellTiter-Glo® Luminescent Cell Viability Assay (Promega). Percent cell viability was calculated by normalizing the luminescence signal to scramble duplex wells. All transfections were performed in triplicates and reported as % Viability±SEM.
(§3) A panel of CRC cell lines was reverse transfected with 25 nM (HCT-116) or 50 nM of SCR or indicated miRNA mimics. At 16 hours post-transfection, Irinotecan (see, FIG. 5A) or 5-FU (see, FIG. 5B) at indicated doses were added. Synergy of miRNA-drug was measured by cell viability 72 hours post-transfection using CellTiter-Glo assay. The effect on apoptosis and cell cycle markers with miRNA alone or combination were assessed using 50 nM of miRNA mimic and […] (HT-29 and SW-480) or 2.5 μM Irinotecan (HCT-116 and RKO) by western blot. For 5-FU, 384 μM (HT-29 and SW-480) and 25 μM (HCT-116 and RKO) were used. Representative western blots are shown in FIG. 5C and FIG. 5D, respectively.

[3] = test system: p53 mutant cell lines HT-29 and SW-480; test: miRNA-5-FU combination by cell viability (CellTiter-Glo); conditions: 50 nM mimic, 5-FU added 16 hours post-transfection, read 72 hours
Experimental: as §2, §3

[4] = test system: CDK6; test: CDK6 protein (western blot) and RNA (qRT-PCR) expression in CRC cell lines transfected with miRNA mimics; conditions: 50 nM miRNA mimic vs scrambled duplex, 72 hours; HCT-116, RKO, HT-29, SW-480
Experimental: as §1
(§4) Quantitative RT-PCR (qRT-PCR): Total RNA, which includes miRNA, was isolated using the Quick-RNA™ MiniPrep kit (Zymo Research, Irvine, CA). One μg of total RNA from each sample was subjected to cDNA synthesis using SuperScript® III Reverse Transcriptase kit (Life Technologies, Grand Island, NY), for detection of CDK4, CDK6, and housekeeping genes. […] The relative expression of the reported genes and miRNAs was determined using real-time PCR performed on Applied Biosystems 7900HT Fast Real-Time PCR system. […] Each cDNA sample was amplified using Power SYBR Green (Applied Biosystems, CA) and miRNA components were quantified using TaqMan® Universal Master Mix II, no UNG (Applied Biosystems, CA). […]

[5] = test system: CDK4; test: CDK4 protein (western blot) and RNA (qRT-PCR) expression in CRC cell lines transfected with miRNA mimics; conditions: 50 nM miRNA mimic vs scrambled duplex, 72 hours; HCT-116, RKO, HT-29, SW-480
Experimental: as §1, §4

[6] = test system: p21; test: Western blot of p21 (cell cycle arrest); conditions: 50 nM mimic; 5-FU 384 μM (HT-29 and SW-480) or 25 μM (HCT-116 and RKO)
Experimental: (§5) Western blot: Western blotting was performed by routine and well known procedures. The following antibodies were used: CDK4 (Santa Cruz Biotechnology, sc-260), CDK6 (CST, D4S8S), CDK1 (Santa Cruz Biotechnology, sc-54), Cyclin-D1 (CST, 92G2), p-Rb (S795) (CST, 9301S), Total Rb, BCLxL (CST, 2764S), PARP (CST, 9542), p53-DO1 (Santa Cruz Biotechnology, sc-126), p21 (Calbiochem, OP64), and β-actin (Sigma, A5441).
as §3

[7] = test system: phosphorylated Rb (S795); test: Western blot of cell cycle markers; conditions: 100 nM miRNA mimics, 72 hours post-transfection; all four cell lines
Experimental: as §5
(§6) Referring in particular to FIGS. 3A, 3B, 3C, 3D, and 3E, data is presented showing that restoring expression of miR-6883-5p and miR-149* results in G1-arrest and cell death in CRC cell lines. […] The effects on cell viability were measured 72 hours post-transfection using CellTiter-Glo assay. Referring to FIG. 3B, the effects of the miRNA mimics on long-term cell proliferation of CRC cell lines was assessed by colony formation assays performed in 6-well plates. […] The effects on cell cycle markers (see, FIG. 3C) and markers of apoptosis (see, FIG. 3D) were evaluated by western blot 72 hours post-transfection. […] Referring to FIG. 3E, cell cycle profiles and apoptotic cells were assessed in three CRC cell lines by reverse transfecting with SCR or 50 nM (HCT-116 and HT-29) or 100 nM (RKO) miRNA mimics. 72 hours post-transfection, cells were fixed, stained with PI, and analyzed by FACS. […]

[8] = test system: PARP; test: Western blot of markers of apoptosis (PARP cleavage); conditions: RKO and SW-480 cells; 100 nM miRNA mimics, 72 hours
Experimental: Referring to FIG. 3A, a panel of CRC cell lines was reverse transfected with 50 nM SCR or 50 nM of indicated miRNA mimics. […] All four CRC cell lines were reverse transfected with 100 nM SCR or indicated miRNA mimics. The effects on cell cycle markers (see, FIG. 3C) and markers of apoptosis (see, FIG. 3D) were evaluated by western blot 72 hours post-transfection. Representative western blots are shown (n=3).

[9] = test system: BCLXL; test: Western blot of BCLXL; conditions: 100 nM miRNA mimic, 72 hours
Experimental: as §5, §6

[10] = test system: XIAP; test: Western blot of XIAP; conditions: 100 nM miRNA mimic, 72 hours

Compound	direct binding to the 3′UTR region of CDK4 [1]	synergy with Irinotecan (cell viability) [2]	sensitivity to 5-FU (cell viability) [3]	CDK6 protein and RNA level [4]	CDK4 protein and RNA level [5]	cell cycle arrest as seen by p21 levels, single agent [6]	levels of phosphorylated Rb (S795) [7]	apoptosis (PARP-cleavage) [8]	luciferase signal ([1]; HCT-116 CDK4-Luciferase stable cells, 50 nM mimic, compared to miR-206 and miR-149*)	BCLXL level [9]	XIAP level [10]
hsa-miR-149-3p [miR-149*]	directly bind to the 3′UTR region of CDK4	synergized with Irinotecan	increased the sensitivity of p53 mutant cell lines HT-29 and SW-480 to 5-FU	more potent in reducing levels of CDK6	no impact on CDK4	caused cell cycle arrest	reduced levels of phosphorylated Rb (S795)				
hsa-miR-6883-5p (AGGGAGGGUGUGGUAUGGAUGU; called a modified oligonucleotide, chemistry not given here; listed as Homo sapiens) [miRNA mimic purchased from Sigma-Aldrich (HMI2616)]	directly bind to the 3′UTR region of CDK4	synergized with Irinotecan	increased the sensitivity of p53 mutant cell lines HT-29 and SW-480 to 5-FU	targeted both CDK4 and CDK6 at both the protein and RNA level	targeted both CDK4 and CDK6 at both the protein and RNA level		reduced levels of phosphorylated Rb (S795)	most potent in inducing apoptosis	significantly reduced luciferase signal	downregulated XIAP and BCLXL	downregulated XIAP and BCLXL
O=c1[nH]cc(F)c(=O)[nH]1 [5-FU, 5-fluorouracil, reference compound]						caused cell cycle arrest					
